Laboratory results published in patent publication US5138069A (E. I. Du Pont de Nemours and Company, priority 1988, dated 1992).
Where two headings read alike, the source gives them in different places.

Tests used:
AII receptor = test: Angiotensin II receptor binding (displacement of 3H-AII); conditions: read-out: Angiotensin II Receptor Binding IC50, rat adrenal cortical microsomes, 2 nM 3H-AII, 1 hour, room temperature
Method: The assay was carried out according to the method described by [Glossmann et al., J. Biol. Chem., 249, 825 (1974)], but with some modifications. The reaction mixture contained rat adrenal cortical microsomes (source of AII receptor) in Tris buffer and 2 nM of ^3 H-AII with or without potential AII antagonist. This mixture was incubated for 1 hour at room temperature and the reaction was subsequently terminated by rapid filtration and rinsing through glass micro-fibre filter. Receptor-bound ^3 H-AII trapped in filter was quantitated by scintillation counting.
Compounds listed in Table 26 were tested in the same manner as described for Table 25, except that in the test for antihypertensive effects in renal hypertensive rats, the compounds were administered orally at 30 mg/kg and intravenously at 3 mg/kg.

Renal Hypertensive Rats = test: Antihypertensive effects in renal hypertensive rats; format: in vivo; conditions: Rattus norvegicus; for minimal effective dose at 10 mg/kg / minimal effective dose at 100 mg/kg: Table 25; for minimal effective dose at 10 mg/kg / minimal effective dose at 3 mg/kg: intravenous; for minimal effective dose at 10 mg/kg: 10 mg/kg or less; for minimal effective dose at 100 mg/kg / minimal effective dose at 30 mg/kg: oral; for minimal effective dose at 100 mg/kg: 100 mg/kg or less; for minimal effective dose at 3 mg/kg / minimal effective dose at 30 mg/kg: Table 26
Method in brief: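 Renal hypertensive rats (renin-driven AII elevation) dosed orally at 100 mg/kg and/or i.v. via jugular cannula at 10 mg/kg; a second set used 30 mg/kg oral and 3 mg/kg i.v. Arterial pressure recorded continuously via carotid cannula and compared with pretreatment levels.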

[1] = Table 25, tested as sodium salt

| SMILES | IC50 (AII receptor; Table 25) | minimal effective dose at 100 mg/kg (Renal Hypertensive Rats) | minimal effective dose at 10 mg/kg (Renal Hypertensive Rats) | other results |
| --- | --- | --- | --- | --- |
| CCCCc1nc(Cl)c(COC)n1Cc1ccc(C(=O)Nc2cccc(C)c2C(=O)O)cc1 [Example 80] | – | – | – | IC50 (AII receptor; [1]): 500 nM; minimal effective dose at 10 mg/kg (Renal Hypertensive Rats; tested as sodium salt): < 10 mg/kg; minimal effective dose at 100 mg/kg (Renal Hypertensive Rats; tested as sodium salt): < 100 mg/kg |
| CCCCc1nc(Cl)c(COC)n1Cc1ccc(C(=O)Nc2ccccc2-c2nnn[nH]2)cc1 [Example 81] | – | – | – | IC50 (AII receptor; [1]): 570 nM; minimal effective dose at 10 mg/kg (Renal Hypertensive Rats; tested as sodium salt): > 100 mg/kg; minimal effective dose at 100 mg/kg (Renal Hypertensive Rats; tested as sodium salt): > 100 mg/kg |
| CCCCc1nc(Cl)c(CO)n1Cc1ccc(-c2cccc(C(=O)OCOC(=O)C(C)(C)C)c2)cc1 [Example 88, 1-[(3'-Trimethylacetoxymethoxycarbonylbiphenyl-4-yl)methyl]-2-butyl-4-chloro-5-hydroxymethylimidazole] | 1300 nM | < 100 mg/kg | – | – |
| CCCCc1nc(Cl)c(COC)n1Cc1ccc(-c2ccccc2-c2nnn[nH]2)cc1 [Example 90] | – | – | – | IC50 (AII receptor; [1]): 20 nM; minimal effective dose at 10 mg/kg (Renal Hypertensive Rats; tested as sodium salt): < 10 mg/kg; minimal effective dose at 100 mg/kg (Renal Hypertensive Rats; tested as sodium salt): < 100 mg/kg |
| CCCCc1nc([N+](=O)[O-])c(CO)n1Cc1ccc(-c2ccccc2C(=O)O)cc1 [Example 91, 1-[(2'-carboxybiphenyl-4-yl)-methyl]-2-butyl-5-hydroxymethyl-4-nitroimidazole] | 260 nM | > 100 mg/kg | < 10 mg/kg | – |
| CCCCc1nc(C(F)(F)F)c(CO)n1Cc1ccc(-c2ccccc2C(=O)O)cc1 [Example 92, 1-[(2'-carboxybiphenyl-4-yl)-methyl]-2-butyl-5-hydroxymethyl-4-trifluoromethylimidazole] | 62 nM | – | < 10 mg/kg | – |
| CCCCc1nc(C(F)(F)C(F)(F)F)c(CO)n1Cc1ccc(-c2ccccc2C(=O)O)cc1 [Example 92A, 1-[(2'-carboxybiphenyl-4-yl)methyl]-2-butyl-5-hydroxymethyl-4-pentafluoroethylimidazole] | – | – | – | IC50 (AII receptor; Table 26): 40 nM; minimal effective dose at 3 mg/kg (Renal Hypertensive Rats): < 3 mg/kg; minimal effective dose at 30 mg/kg (Renal Hypertensive Rats): < 30 mg/kg |
| CCCCc1nc(Cl)c(CO)n1Cc1ccc(-c2ccccc2C(=O)O)cc1 [Example 94, 2-butyl-1-[(2'-carboxybiphenyl-4-yl)methyl]-4-chloro-5-hydroxymethylimidazole] | 280 nM | < 100 mg/kg | < 10 mg/kg | – |
| CCCCc1nc(CO)c(Cl)n1Cc1ccc(-c2ccccc2C(=O)O)cc1 [Example 95] | 1200 nM | > 100 mg/kg | < 10 mg/kg | – |
| CCCCc1ncc(CO)n1Cc1ccc(-c2ccccc2C(=O)O)cc1 [Example 97] | 270 nM | > 100 mg/kg | < 10 mg/kg | – |
| CCCCc1nc(Cl)c(COC(C)C)n1Cc1ccc(-c2ccccc2C(=O)O)cc1 [Example 99] | 90 nM | < 100 mg/kg | < 10 mg/kg | – |
| CCCCc1nc(Br)c(CO)n1Cc1ccc(-c2ccccc2C(=O)O)cc1 [Example 100] | 90 nM | < 100 mg/kg | < 10 mg/kg | – |
| CCCCc1nc(I)c(CO)n1Cc1ccc(-c2ccccc2C(=O)O)cc1 [Example 102] | 61 nM | < 100 mg/kg | < 10 mg/kg | – |
| CCCCc1nc(CO)c(I)n1Cc1ccc(-c2ccccc2C(=O)O)cc1 [Example 105] | 680 nM | < 100 mg/kg | < 10 mg/kg | – |
| CCCCc1nc(Cl)c(CO)n1Cc1ccc(-c2cccc(C)c2C(=O)O)cc1 [Example 106] | 1900 nM | < 100 mg/kg | < 10 mg/kg | – |
| CCCc1nc(Cl)c(CO)n1Cc1ccc(-c2ccccc2C(=O)O)cc1 [Example 108] | 160 nM | < 100 mg/kg | < 10 mg/kg | – |
| CCCCCc1nc(Cl)c(CO)n1Cc1ccc(-c2ccccc2C(=O)O)cc1 [Example 109] | 980 nM | < 100 mg/kg | < 10 mg/kg | – |

| SMILES | IC50 (AII receptor; Table 25) | minimal effective dose at 100 mg/kg (Renal Hypertensive Rats) | minimal effective dose at 10 mg/kg (Renal Hypertensive Rats) | other results |
| --- | --- | --- | --- | --- |
| CCCc1nc(Cl)c(C=O)n1Cc1ccc(-c2ccccc2-c2nnn[nH]2)cc1 [Example 114, 2-Propyl-4-chloro-1-[(2'-(1H-tetrazol-5-yl)biphenyl-4-yl)methyl]imidazole-5-carboxaldehyde] | 50 nM | < 100 mg/kg | < 10 mg/kg | – |
| CCCCc1nc(Cl)c(CC(=O)O)n1Cc1ccc(-c2ccccc2C(=O)O)cc1 [Example 115] | 430 nM | < 100 mg/kg | < 10 mg/kg | – |
| CCCCc1nc(Cl)c(C(C)C(=O)O)n1Cc1ccc(-c2ccccc2C(=O)O)cc1 (stereo not shown) [Example 116] | 260 nM | < 100 mg/kg | < 10 mg/kg | – |
| CCCCc1nc(CO)c([N+](=O)[O-])n1Cc1ccc(-c2ccccc2C(=O)O)cc1 [Example 117] | 890 nM | < 100 mg/kg | < 10 mg/kg | – |
| CCCCc1nc(CO)c(Cl)n1Cc1ccc(-c2ccccc2-c2nn[nH]n2)cc1 [Example 118] | 89 nM | < 100 mg/kg | < 10 mg/kg | – |
| CCCCSc1ncc(CO)n1Cc1ccc(-c2ccccc2C(=O)O)cc1 [Example 123] | 5600 nM | > 100 mg/kg | < 10 mg/kg | – |
| CCCc1nc(C(F)(F)F)c(CO)n1Cc1ccc(-c2ccccc2C(=O)O)cc1 [Example 124A] | – | – | – | IC50 (AII receptor; Table 26): 130 nM; minimal effective dose at 3 mg/kg (Renal Hypertensive Rats): < 3 mg/kg; minimal effective dose at 30 mg/kg (Renal Hypertensive Rats): < 30 mg/kg |
| CCCc1nc(C(F)(F)C(F)(F)F)c(CO)n1Cc1ccc(-c2ccccc2C(=O)O)cc1 [Example 124B] | – | – | – | IC50 (AII receptor; Table 26): 50 nM; minimal effective dose at 3 mg/kg (Renal Hypertensive Rats): < 3 mg/kg; minimal effective dose at 30 mg/kg (Renal Hypertensive Rats): < 30 mg/kg |
| CCCc1nc(C(F)(F)F)c(CO)n1Cc1ccc(-c2ccccc2-c2nn[nH]n2)cc1 [Example 124D] | – | – | – | IC50 (AII receptor; Table 26): 6 nM; minimal effective dose at 3 mg/kg (Renal Hypertensive Rats): < 3 mg/kg; minimal effective dose at 30 mg/kg (Renal Hypertensive Rats): < 30 mg/kg |
| CCCCc1nc(C(F)(F)C(F)(F)F)c(CO)n1Cc1ccc(-c2ccccc2-c2nn[nH]n2)cc1 [Example 124E] | – | – | – | IC50 (AII receptor; Table 26): 7 nM; minimal effective dose at 3 mg/kg (Renal Hypertensive Rats): < 3 mg/kg; minimal effective dose at 30 mg/kg (Renal Hypertensive Rats): < 30 mg/kg |
| CCCc1nc(C(F)(F)C(F)(F)C(F)(F)F)c(CO)n1Cc1ccc(-c2ccccc2C(=O)O)cc1 [Example 124G] | – | – | – | IC50 (AII receptor; Table 26): 74 nM; minimal effective dose at 3 mg/kg (Renal Hypertensive Rats): < 3 mg/kg; minimal effective dose at 30 mg/kg (Renal Hypertensive Rats): < 30 mg/kg |
| CCCc1nc(C(F)(F)C(F)(F)C(F)(F)C(F)(F)F)c(CO)n1Cc1ccc(-c2ccccc2C(=O)O)cc1 [Example 124H] | – | – | – | IC50 (AII receptor; Table 26): 290 nM; minimal effective dose at 3 mg/kg (Renal Hypertensive Rats): < 3 mg/kg; minimal effective dose at 30 mg/kg (Renal Hypertensive Rats): < 30 mg/kg |
| CCCc1nc(C(F)(F)C(F)(F)C(F)(F)C(F)(F)C(F)(F)C(F)(F)F)c(CO)n1Cc1ccc(-c2ccccc2C(=O)O)cc1 [Example 124I] | – | – | – | IC50 (AII receptor; Table 26): 2500 nM; minimal effective dose at 3 mg/kg (Renal Hypertensive Rats): < 3 mg/kg; minimal effective dose at 30 mg/kg (Renal Hypertensive Rats): > 30 mg/kg |
| CCCc1nc(-c2c(F)c(F)c(F)c(F)c2F)c(CO)n1Cc1ccc(-c2ccccc2C(=O)O)cc1 [Example 124J] | – | – | – | IC50 (AII receptor; Table 26): 680 nM; minimal effective dose at 3 mg/kg (Renal Hypertensive Rats): < 3 mg/kg; minimal effective dose at 30 mg/kg (Renal Hypertensive Rats): < 30 mg/kg |
| CCCc1nc(C(F)(F)C(F)(F)C(F)(F)F)c(CO)n1Cc1ccc(-c2ccccc2-c2nnn[nH]2)cc1 [Example 124K] | – | – | – | IC50 (AII receptor; Table 26): 13 nM; minimal effective dose at 3 mg/kg (Renal Hypertensive Rats): < 3 mg/kg; minimal effective dose at 30 mg/kg (Renal Hypertensive Rats): < 30 mg/kg |
| O=C(O)c1ccccc1-c1ccc(Cn2c(CO)cnc2SCC2CC2)cc1 [Example 124] | 1800 nM | > 100 mg/kg | < 10 mg/kg | – |
| CCCCc1nc(Cl)c(C(=O)OC)n1Cc1ccc(-c2ccccc2C(=O)O)cc1 [Example 126, methyl 1-[(2'-carboxybiphenyl-4-yl)methyl]-2-butyl-4-chloroimidazole-5-carboxylate] | 340 nM | < 100 mg/kg | < 10 mg/kg | – |
